# Earlier results as cited in patent publication US20110305778A1, “Chemically Stabilized Anti-Dandruff Compositions For Use In Personal Care Compositions” (priority 2010, published 2011).
# Settings: value in parenthesis after each coordinating compound; no method given
row,SMILES,Log Zn Binding Constant
1,CC(=O)O [Acetic Acid],1.0
2,O=C(O)CCC(=O)O [Succinic Acid],1.8
3,O=P(O)(O)O [Phosphoric Acid],2.4
4,O=C(O)c1ccccc1C(=O)O [Phthalic Acid],2.2
5,N[C@@H](CS)C(=O)O [Cysteine],9.1
6,O=C(O)CO [Glycolic Acid],2.0
7,Cl [Chloride],−0.3
8,Cc1cc(C2(c3cc(C)c(O)c(CN(CC(=O)O)CC(=O)O)c3)OS(=O)(=O)c3ccccc32)cc(CN(CC(=O)O)CC(=O)O)c1O [Xylenol Orange],10.3
9,O=C(O)O [Carbonic Acid],3.9
10,CSCC[C@H](N)C(=O)O [Methionine],4.4
11,N=C(N)NCCC[C@H](N)C(=O)O [Arginine],4.2
12,CC(O)C(=O)O (stereo not shown) [Lactic Acid],1.9
13,OB(O)O [Boric Acid],0.9
14,O=C(O)CN(CC(=O)O)CC(=O)O [NTA],10.7
15,O=C(O)CCCCC(=O)O [Adipic Acid],2.6
16,O=C(O)C[C@H](NCCN[C@@H](CC(=O)O)C(=O)O)C(=O)O [EDDS],13.5
17,NCC(=O)O [Glycine],5.0
18,O=CO [Formic Acid],0.6
19,O=C(O)CC(O)(CC(=O)O)C(=O)O [Citric Acid],4.8
20,O=S(=O)(O)O [Sulfuric Acid],0.9
21,N[C@@H](CSSC[C@H](N)C(=O)O)C(=O)O [Cystine],6.7
22,O=C(O)CN(CCN(CC(=O)O)CC(=O)O)CC(=O)O [EDTA],16.5
23,N[C@@H](CC(=O)O)C(=O)O [Aspartic Acid],5.9
24,N[C@@H](CCC(=O)O)C(=O)O [Glutamic Acid],4.5
25,O=C(O)CC(=O)O [Malonic Acid],2.9
26,O=C(O)C(O)C(=O)O [Tatronic Acid],3.2
27,O=C(O)CC(O)C(=O)O (stereo not shown) [Malic Acid],2.9
28,O=C(O)CNCCNCC(=O)O [EDDA],11.1
